Reference: ChEMBL document CHEMBL5696442, “Discovery of type II inhibitors of TGFβ-activated kinase 1 (TAK1) and mitogen-activated protein kinase kinase kinase kinase 2 (MAP4K2)” (J Med Chem, 2015)

How the values were obtained:
[1] = molecular target: Rho-associated protein kinase (Homo sapiens) (UniProt O75116+Q13464); test: Inhibition of ROCK1/2 K2 labeling site in human Huh-7 cells at 1 uM by KiNativ Profiling analysis relative to control; format: cell-based
[2] = molecular target: Mitogen-activated protein kinase kinase kinase kinase 4 (Homo sapiens, UniProt O95819); test: Inhibition of ZC1/HGK K2 labeling site in human Huh-7 cells at 1 uM by KiNativ Profiling analysis relative to control; format: cell-based
[3] = molecular target: Serine/threonine-protein kinase 32C (Homo sapiens) (UniProt Q86UX6); test: Inhibition of YANK3 K2 labeling site in human Huh-7 cells at 10 uM by KiNativ Profiling analysis relative to control; format: cell-based
[4] = molecular target: Platelet-derived growth factor receptor alpha (Homo sapiens) (UniProt P16234); test: Inhibition of PDGFRA (unknown origin) at 10 uM by Ambit Kinomescan binding assay relative to control
[5] = Inhibition of TLK1/2 K2 labeling site in human Huh-7 cells at 1 uM by KiNativ Profiling analysis relative to control; settings: condition cancer
[6] = molecular target: Proto-oncogene tyrosine-protein kinase Src (Homo sapiens, UniProt P12931); test: Inhibition of SRC ACT labeling site in human Huh-7 cell lysate at 1 uM by KiNativ Profiling analysis relative to control; format: subcellular
[7] = molecular target: Phosphatidylinositol 3-kinase catalytic subunit type 3 (Homo sapiens) (UniProt Q8NEB9); test: Inhibition of PIK3C3 ATP labeling site in human Huh-7 cell lysate at 1 uM by KiNativ Profiling analysis relative to control; format: subcellular
[8] = molecular target: DNA-PK/Ku70/Ku85 (Homo sapiens) (UniProt P78527+P12956+P13010); test: Inhibition of DNAPK ATP labeling site harbouring GHDEREHPFLVKGGEDLR in human Huh-7 cell lysate at 1 uM by KiNativ Profiling analysis relative to control; format: subcellular
[9] = molecular target: Cyclin-dependent kinase 10 (Homo sapiens) (UniProt Q15131); test: Inhibition of CDK10 Lys2 labeling site in human Huh-7 cells at 1 uM by KiNativ Profiling analysis relative to control; format: cell-based
[10] = molecular target: Maternal embryonic leucine zipper kinase (Homo sapiens) (UniProt Q14680); test: Inhibition of MELK Lys2 labeling site in human A-375 cells at 0.5 uM by KiNativ Profiling analysis relative to control; format: cell-based
[11] = molecular target: T1, Dual specificity mitogen-activated protein kinase kinase 7 (Homo sapiens) (UniProt O14733); test: Inhibition of MAP2K7 Lys2 labeling site in human A-375 cells at 5 uM by KiNativ Profiling analysis relative to control; format: cell-based
T1 sequence (whole entry): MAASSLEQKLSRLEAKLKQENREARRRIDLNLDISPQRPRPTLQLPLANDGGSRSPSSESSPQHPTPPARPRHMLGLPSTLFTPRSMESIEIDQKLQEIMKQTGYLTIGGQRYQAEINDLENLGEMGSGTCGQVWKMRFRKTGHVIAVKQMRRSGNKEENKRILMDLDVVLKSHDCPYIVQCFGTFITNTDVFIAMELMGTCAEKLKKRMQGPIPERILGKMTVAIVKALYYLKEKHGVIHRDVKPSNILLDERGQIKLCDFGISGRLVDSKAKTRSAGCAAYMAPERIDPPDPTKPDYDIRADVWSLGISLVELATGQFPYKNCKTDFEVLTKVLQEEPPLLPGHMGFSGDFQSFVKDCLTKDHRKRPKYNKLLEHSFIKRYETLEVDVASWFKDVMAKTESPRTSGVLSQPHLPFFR

[12] = molecular target: cAMP-dependent protein kinase catalytic subunit beta (Homo sapiens) (UniProt P22694); test: Inhibition of PKAC beta (unknown origin) at 1 uM by Ambit Kinomescan binding assay relative to control
[13] = molecular target: Microtubule-associated serine/threonine-protein kinase 2 (Homo sapiens) (UniProt Q6P0Q8); test: Inhibition of MAST2 Lys2 labeling site in human A-375 cells at 0.05 uM by KiNativ Profiling analysis relative to control; format: cell-based
[14] = molecular target: Cyclin-dependent kinase 9 (Homo sapiens) (UniProt P50750); test: Inhibition of CDK9 Lys2 labeling site in human A-375 cells at 0.5 uM by KiNativ Profiling analysis relative to control; format: cell-based
[15] = molecular target: Serine/threonine-protein kinase 4 (Homo sapiens) (UniProt Q13043); test: Inhibition of MST1 Lys2 labeling site harbouring DIKAGNILLNTEGHAK in human A-375 cells at 0.05 uM by KiNativ Profiling analysis relative to control
[16] = molecular target: T2, Serine/threonine-protein kinase LATS1 (Homo sapiens) (UniProt O95835); test: Inhibition of LATS1 (unknown origin) at 1 uM by Ambit Kinomescan binding assay relative to control
T2 sequence (whole entry): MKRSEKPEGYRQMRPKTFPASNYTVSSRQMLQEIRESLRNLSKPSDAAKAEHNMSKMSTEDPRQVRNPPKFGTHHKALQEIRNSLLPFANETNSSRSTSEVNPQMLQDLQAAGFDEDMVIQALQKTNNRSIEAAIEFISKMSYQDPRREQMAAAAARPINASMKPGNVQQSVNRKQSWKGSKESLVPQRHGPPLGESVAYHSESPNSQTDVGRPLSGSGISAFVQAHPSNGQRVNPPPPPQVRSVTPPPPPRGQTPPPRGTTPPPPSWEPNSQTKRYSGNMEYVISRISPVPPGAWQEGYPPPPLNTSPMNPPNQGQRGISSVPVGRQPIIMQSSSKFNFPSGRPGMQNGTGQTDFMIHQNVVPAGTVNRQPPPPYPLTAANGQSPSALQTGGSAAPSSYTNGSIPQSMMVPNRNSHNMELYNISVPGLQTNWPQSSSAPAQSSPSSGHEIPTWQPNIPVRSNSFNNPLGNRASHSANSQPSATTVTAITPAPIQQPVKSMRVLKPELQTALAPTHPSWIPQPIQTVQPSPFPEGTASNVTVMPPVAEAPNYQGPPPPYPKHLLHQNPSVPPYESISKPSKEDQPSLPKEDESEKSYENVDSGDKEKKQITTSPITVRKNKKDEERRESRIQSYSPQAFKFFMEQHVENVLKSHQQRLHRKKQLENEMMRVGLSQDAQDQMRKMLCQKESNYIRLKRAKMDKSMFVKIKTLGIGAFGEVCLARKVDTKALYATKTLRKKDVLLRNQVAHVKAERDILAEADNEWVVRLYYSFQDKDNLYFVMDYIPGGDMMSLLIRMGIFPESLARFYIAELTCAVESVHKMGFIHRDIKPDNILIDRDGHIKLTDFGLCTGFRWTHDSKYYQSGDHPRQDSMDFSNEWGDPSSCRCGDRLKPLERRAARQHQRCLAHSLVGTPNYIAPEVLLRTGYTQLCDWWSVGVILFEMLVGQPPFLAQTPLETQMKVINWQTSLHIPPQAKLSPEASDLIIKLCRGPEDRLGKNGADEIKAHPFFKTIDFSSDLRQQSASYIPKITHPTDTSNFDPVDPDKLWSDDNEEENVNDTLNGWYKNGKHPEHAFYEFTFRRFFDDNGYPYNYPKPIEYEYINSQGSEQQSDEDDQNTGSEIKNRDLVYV

Sequence of Rho-associated protein kinase (Homo sapiens) (O75116 whole entry, looked up): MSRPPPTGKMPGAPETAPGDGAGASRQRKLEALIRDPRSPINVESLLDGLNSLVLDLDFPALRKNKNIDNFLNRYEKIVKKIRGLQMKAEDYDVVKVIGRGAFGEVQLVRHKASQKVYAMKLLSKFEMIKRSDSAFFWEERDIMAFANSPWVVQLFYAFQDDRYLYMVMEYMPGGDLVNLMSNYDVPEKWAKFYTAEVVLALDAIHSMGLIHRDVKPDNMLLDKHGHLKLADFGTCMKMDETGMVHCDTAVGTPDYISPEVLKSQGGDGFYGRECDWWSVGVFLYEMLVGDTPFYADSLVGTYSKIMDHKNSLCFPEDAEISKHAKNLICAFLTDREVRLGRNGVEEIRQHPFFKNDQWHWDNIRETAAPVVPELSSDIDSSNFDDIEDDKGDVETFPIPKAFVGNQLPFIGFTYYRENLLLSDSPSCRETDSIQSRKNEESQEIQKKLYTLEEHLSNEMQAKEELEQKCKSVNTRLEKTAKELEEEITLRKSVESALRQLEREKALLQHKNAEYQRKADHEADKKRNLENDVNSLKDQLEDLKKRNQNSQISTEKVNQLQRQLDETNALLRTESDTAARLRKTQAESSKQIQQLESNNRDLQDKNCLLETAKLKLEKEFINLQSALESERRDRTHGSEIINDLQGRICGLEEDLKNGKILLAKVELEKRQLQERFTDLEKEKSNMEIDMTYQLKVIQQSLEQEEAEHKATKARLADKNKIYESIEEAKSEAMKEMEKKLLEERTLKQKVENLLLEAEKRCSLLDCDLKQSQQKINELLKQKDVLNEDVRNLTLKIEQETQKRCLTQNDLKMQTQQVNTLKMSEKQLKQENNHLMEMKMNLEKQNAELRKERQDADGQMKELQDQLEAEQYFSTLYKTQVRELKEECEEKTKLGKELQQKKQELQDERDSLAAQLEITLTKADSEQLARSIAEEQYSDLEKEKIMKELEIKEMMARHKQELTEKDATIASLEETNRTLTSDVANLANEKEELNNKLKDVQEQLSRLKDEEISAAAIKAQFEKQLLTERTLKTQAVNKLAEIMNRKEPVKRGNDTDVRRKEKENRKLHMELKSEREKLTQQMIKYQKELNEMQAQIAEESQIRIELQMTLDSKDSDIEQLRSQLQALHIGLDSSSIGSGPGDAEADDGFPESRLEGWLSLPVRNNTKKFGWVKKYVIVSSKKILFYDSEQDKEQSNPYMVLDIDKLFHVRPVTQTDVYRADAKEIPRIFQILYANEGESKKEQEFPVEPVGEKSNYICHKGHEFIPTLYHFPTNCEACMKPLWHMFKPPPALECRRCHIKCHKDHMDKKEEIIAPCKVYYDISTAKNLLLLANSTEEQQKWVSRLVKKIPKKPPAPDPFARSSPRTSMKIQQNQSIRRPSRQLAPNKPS
Sequence of Rho-associated protein kinase (Homo sapiens) (Q13464 whole entry, looked up): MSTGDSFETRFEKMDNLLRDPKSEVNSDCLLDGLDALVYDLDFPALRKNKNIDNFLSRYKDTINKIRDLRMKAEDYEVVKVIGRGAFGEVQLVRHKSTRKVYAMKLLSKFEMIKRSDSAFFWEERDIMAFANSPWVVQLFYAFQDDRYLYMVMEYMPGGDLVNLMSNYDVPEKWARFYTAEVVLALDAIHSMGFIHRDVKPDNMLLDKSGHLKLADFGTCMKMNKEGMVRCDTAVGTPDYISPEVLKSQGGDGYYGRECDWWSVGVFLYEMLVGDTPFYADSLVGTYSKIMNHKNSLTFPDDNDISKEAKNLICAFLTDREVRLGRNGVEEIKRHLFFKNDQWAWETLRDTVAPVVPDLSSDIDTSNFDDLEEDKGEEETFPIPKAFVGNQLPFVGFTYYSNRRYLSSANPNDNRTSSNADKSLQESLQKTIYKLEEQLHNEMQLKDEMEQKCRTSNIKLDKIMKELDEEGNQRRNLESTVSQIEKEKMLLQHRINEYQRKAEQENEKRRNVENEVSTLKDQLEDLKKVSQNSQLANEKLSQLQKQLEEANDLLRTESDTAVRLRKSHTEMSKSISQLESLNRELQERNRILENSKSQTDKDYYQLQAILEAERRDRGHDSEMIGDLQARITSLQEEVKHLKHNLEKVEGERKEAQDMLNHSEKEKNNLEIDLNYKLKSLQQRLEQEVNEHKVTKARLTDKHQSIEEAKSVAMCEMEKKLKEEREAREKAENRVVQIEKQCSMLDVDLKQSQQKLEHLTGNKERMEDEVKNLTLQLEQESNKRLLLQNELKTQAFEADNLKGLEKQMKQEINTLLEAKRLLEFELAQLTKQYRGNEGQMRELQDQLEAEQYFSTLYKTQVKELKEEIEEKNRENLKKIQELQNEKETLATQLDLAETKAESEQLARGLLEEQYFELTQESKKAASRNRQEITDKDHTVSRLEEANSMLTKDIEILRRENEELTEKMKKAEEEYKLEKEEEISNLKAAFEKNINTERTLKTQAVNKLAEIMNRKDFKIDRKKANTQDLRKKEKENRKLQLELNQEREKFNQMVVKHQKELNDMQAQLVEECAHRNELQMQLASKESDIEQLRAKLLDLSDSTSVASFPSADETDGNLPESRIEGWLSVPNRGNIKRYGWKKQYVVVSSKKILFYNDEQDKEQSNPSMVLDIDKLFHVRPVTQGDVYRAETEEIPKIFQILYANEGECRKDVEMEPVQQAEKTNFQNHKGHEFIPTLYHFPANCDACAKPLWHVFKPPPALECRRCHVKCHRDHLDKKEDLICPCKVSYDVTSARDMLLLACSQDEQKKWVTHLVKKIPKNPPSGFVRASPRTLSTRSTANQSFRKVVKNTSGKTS
Sequence of Cyclin-dependent kinase 9 (Homo sapiens) (P50750 whole entry): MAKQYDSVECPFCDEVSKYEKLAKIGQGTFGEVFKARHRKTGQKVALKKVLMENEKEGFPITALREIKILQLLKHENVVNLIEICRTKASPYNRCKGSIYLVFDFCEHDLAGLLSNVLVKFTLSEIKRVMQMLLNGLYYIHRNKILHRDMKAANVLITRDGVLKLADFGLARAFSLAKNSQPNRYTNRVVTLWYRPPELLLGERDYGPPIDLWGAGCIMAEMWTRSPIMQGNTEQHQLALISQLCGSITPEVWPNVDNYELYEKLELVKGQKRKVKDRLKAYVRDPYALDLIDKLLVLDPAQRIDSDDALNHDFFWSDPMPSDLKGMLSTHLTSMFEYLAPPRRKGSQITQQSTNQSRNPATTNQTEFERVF
Sequence of Proto-oncogene tyrosine-protein kinase Src (P12931 2-536 limits assumed): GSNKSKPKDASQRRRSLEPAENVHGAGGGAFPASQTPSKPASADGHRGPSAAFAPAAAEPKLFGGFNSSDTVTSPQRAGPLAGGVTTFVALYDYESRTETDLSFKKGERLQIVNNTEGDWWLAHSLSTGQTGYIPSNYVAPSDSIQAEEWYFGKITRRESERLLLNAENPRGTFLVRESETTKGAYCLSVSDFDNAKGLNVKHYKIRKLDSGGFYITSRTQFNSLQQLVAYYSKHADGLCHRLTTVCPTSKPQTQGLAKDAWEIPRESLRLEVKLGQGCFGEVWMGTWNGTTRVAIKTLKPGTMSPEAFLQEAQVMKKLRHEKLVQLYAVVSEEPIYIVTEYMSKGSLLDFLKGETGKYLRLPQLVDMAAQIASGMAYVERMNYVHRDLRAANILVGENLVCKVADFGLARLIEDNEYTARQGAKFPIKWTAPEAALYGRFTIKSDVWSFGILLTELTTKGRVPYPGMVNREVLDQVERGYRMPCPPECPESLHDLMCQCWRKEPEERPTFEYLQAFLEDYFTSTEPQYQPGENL
Sequence of Serine/threonine-protein kinase 4 (Homo sapiens) (Q13043 whole entry, looked up): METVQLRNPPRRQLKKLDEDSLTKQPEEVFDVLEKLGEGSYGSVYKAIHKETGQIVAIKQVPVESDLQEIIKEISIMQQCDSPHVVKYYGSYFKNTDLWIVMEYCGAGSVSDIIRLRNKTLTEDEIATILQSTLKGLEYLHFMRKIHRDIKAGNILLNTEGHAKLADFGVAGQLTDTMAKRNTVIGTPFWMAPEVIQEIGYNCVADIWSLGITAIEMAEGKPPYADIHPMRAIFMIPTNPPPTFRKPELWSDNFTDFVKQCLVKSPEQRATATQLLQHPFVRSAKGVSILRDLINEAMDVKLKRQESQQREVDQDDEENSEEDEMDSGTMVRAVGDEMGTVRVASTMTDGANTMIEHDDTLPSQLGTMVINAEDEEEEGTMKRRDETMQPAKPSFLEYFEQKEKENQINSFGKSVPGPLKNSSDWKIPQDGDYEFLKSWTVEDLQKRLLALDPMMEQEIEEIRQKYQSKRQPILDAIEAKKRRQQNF
Sequence of Serine/threonine-protein kinase 32C (Homo sapiens) (Q86UX6 whole entry): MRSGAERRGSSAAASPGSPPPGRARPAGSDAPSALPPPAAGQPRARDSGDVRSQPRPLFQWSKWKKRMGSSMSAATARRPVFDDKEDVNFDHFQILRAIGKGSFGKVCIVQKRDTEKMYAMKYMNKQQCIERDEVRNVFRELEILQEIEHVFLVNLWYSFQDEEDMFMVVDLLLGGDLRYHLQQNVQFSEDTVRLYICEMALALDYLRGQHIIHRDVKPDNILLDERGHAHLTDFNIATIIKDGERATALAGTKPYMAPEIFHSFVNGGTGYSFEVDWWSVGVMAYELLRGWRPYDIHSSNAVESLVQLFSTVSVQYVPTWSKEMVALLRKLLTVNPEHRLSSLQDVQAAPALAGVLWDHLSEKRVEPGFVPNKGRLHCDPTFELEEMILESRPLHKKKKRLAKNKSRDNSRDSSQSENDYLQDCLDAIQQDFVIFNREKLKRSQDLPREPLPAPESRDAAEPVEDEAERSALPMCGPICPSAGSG
Sequence of Cyclin-dependent kinase 10 (Homo sapiens) (Q15131 whole entry): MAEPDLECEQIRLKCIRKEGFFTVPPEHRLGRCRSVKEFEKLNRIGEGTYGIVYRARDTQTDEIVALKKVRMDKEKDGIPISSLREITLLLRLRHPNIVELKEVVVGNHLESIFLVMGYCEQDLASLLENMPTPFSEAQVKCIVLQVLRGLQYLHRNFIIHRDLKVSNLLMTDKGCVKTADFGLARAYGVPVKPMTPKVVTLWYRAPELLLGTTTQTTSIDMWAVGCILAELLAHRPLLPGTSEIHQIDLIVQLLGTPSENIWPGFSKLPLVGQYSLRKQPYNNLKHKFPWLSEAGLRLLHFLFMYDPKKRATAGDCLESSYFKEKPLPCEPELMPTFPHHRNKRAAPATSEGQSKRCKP

CCN1CCN(Cc2ccc(NC(=O)c3ccc(C)c(Oc4ccnc5[nH]ccc45)c3)cc2C(F)(F)F)CC1
inhibition [1]: 13.7%
inhibition [2]: 23%
inhibition [3]: 2.5%
inhibition [4]: 0.6%
inhibition at 1 µM [5]: -1.1%

CNc1cc(Oc2cc(C(=O)Nc3cc(N4CCN(C)CC4)cc(C(F)(F)F)c3)ccc2C)ncn1
inhibition [6]: 22%
inhibition [7]: -4.2%
inhibition [8]: 7.9%
inhibition [9]: 59.3%

CCN1CCN(Cc2ccc(NC(=O)c3ccc(C)c(/C=C/c4cnc5[nH]ccc5c4OC)c3)cc2C(F)(F)F)CC1
inhibition [10]: 1.9%
inhibition [11]: 57%
inhibition [12]: 76%
inhibition [13]: -1.4%
inhibition [14]: 1.5%
inhibition [15]: -7%
inhibition [16]: 80%
